One may read the IC50 as the concentration that inhibits the measured activity by half. Read a high IC50 as weaker potency in that assay.

SMILES strings stand for the structures.

Experimental findings from patent US20160008490A1, “METAL CHELATE COMPOUNDS FOR BINDING TO THE PLATELET SPECIFIC GLYCOPROTEIN IIB/IIIA” (BAYER PHARMA AKTIENGESELLSCHAFT, priority 2013, published 2016) are described below.

Assay [1] concerns the target T1, human GP IIb/IIIa receptor (Homo sapiens, UniProt P05106+P08514).
T1 construct: human GPIIb/IIIa purified from human platelets was immobilized on a 96-well solid plate; purchased Enzyme Research Laboratories Inc. (South Bend, Ind.); host or cells: human platelets (natural source, detergent-solubilised)
Put plainly: GPIIb/IIIa affinity assay (displacement of tritiated reference compound from immobilized receptor). In kind it is binding. The following applies: purified human GPIIb/IIIa, 60 nM 3H-labeled reference compound, 1 hour at room temperature. As to the method: Affinity assay: In the first step human GPIIb/IIIa purified from human platelets was immobilized on a 96-well solid plate. After 48 hours the plates were washed and the unspecific binding sites were blocked with Roti®-Block. 2. In the next step, the plates were simultaneously incubated with a tritium labeled known GPIIb/IIIa binder (^3H) mixed with increasing concentrations of the novel compounds (inhibitor). The higher the affinity of the inhibitor, the lower the bound fraction of the tritiated known GPIIb/IIIa binder (^3H) was. The fraction of tritiated compound (^3H), which is not displaced by inhibitor, was measured in a microplate scintillation counter.
Purified human glycoprotein IIb/IIIa (20 mM Tris-HCl, 0.1 M NaCl, 0.1% Triton X-100, 1 mM CaCl2, 0.05% NaN3, 50% Glycerol, pH 7.4) was purchased from Enzyme Research Laboratories Inc. (South Bend, Ind.). The GPIIb/IIIa receptor was diluted in phosphate-buffered saline (Dulbecco's Phosphate Buffered Saline (D-PBS (+)) with calcium and magnesium, GIBCO®, Invitrogen) with 0.01% bovine serum albumin (albumin from bovine serum—lyophilized powder, 96%, Sigma).
The GPIIb/IIIa receptor was immobilized 48 hours at least (100 μL per well, 48 to maximum 96 hours) on a 96-well solid plate (Immuno Plate MaxiSorp™, Nunc, Roskilde, Denmark) at 277 K to 280 K and at a concentration of 0.1 μg per well to 1 μg per well. As negative control one row of the plate (n=8) was incubated just with 2% bovine serum albumin (200 μL per well, albumin from bovine serum—lyophilized powder, ≧96%, Sigma, diluted in D-PBS (+)).
After washing three times with the wash buffer (230 μL per well, Dulbecco's Phosphate Buffered Saline (D-PBS (−)) contains no calcium or magnesium, GIBCO®, Invitrogen) residual exposed plastic and unspecific binding sites were blocked by incubating the plate with a special blocking solution (200 μL per well, Roti®-Block, Car Roth GmbH Co KG, Karlsruhe) containing 2% bovine serum albumin (Albumin from bovine serum—lyophilized powder, ≧96%, Sigma) 1 hour at room temperature.
After washing three times with the wash buffer 50 μL of tritiated reference compound (60 nM, ^3H-labeled compound) and 50 μL of novel compound (inhibitor) were simultaneously added to each well and incubated for 1 hour at room temperature. Several concentrations of each novel inhibitor (0.1, 1, 2, 5, 10, 20 50, 100, 200, 500, 1000, 2000, 5000, 10000 and 20000 nM) were investigated. At each concentration of inhibitor a fourfold determination was performed.
The maximum value of tritiated reference compound was determined without addition of inhibitor (n=8). To exclude unspecific binding of ^3H— reference compound wells without glycoprotein receptors were used as negative controls (n=12, identically treated just without GPIIb/IIIa receptors).
After one hour the plate was washed three times with phosphate-buffered saline (200 μL per well, Dulbecco's Phosphate Buffered Saline (D-PBS (+)), GIBCO®, Invitrogen). Following 140 μL of liquid scintillation cocktail (MicroScint™ 40 aqueous, Perkin Elmer) was added to each well. After 15 min at room temperature the plates were measured at the microplate scintillation counter (TopCount NXT v2.13, Perkin Elmer, Packard Instrument Company).
In the first step human glycoprotein IIb/IIIa, which is purified from human platelets, was immobilized on a 96-well solid plate. After 48 hours at least the plates were washed and the unspecific binding sites were blocked with Roti®-Block. In the next step, the plates were simultaneously incubated with a tritium labeled reference compound and the novel small molecule compound (inhibitor). The higher the affinity of the inhibitor, the smaller is the bound fraction of reference compound. The fraction of tritiated reference compound, which is not displaced by inhibitor, was measured at a microplate scintillation counter. The higher the affinity of the inhibitor, the smaller is the bound fraction of tritium-labeled reference compound. […]

Assay [2] relates to human activated platelets. The assay is described as follows: Binding of investigated compounds to human activated platelets (ICP-MS of Gd in pellet and supernatant). In kind it is cell-based. The following applies: ADP-activated platelet-rich plasma, 20 minutes. As to the method: For each experiment fresh blood was taken from a volunteer using 10 mL citrate-tubes (Sarstedt S-Monovette 02.1067.001, 10 mL, Citrate 3.13%). The 10 mL citrate-tubes were carefully inverted 10 times to mix blood and anticoagulant. The tubes were stored in an incubator at a temperature of 37° C. until centrifugation (Heraeus miniTherm CTT with integrated rotation- and turning device, turning speed: 19 rotations per minute, Heraeus Instruments GmbH, Hanau/Germany).
For plasma preparation tube centrifugation was carried out for 15 minutes at 1811 g at room temperature (Eppendorf, Centrifuge 5810R). Blood was centrifuged 15 minutes at 201 g at room temperature to produce platelet-rich plasma. The tubes were stored for 30 min at room temperature to get a better separation. The separated platelet-rich plasma was finally centrifuged for further 3 min at 453 g to remove the remaining erythrocytes. The platelet-rich plasma was activated using a final concentration of 5 μM Adenosindiphosphate (ADP, Sigma). The activated platelet-rich plasma was incubated 20 minutes with different concentrations of gadolinium-labeled compound and subsequently was centrifuged 3 minutes at 1360 g. 20 μL of incubation solution was taken to determine the concentration (n=3). […] The gadolinium concentration of supernatant and pellet was determined using an inductively coupled plasma mass spectrometry (ICP-MS Agilent 7500a).
The results for incubation concentration of 1 μM gadolinium-labeled compound are summarized in table 3 (in comparison to Gadovist® standard dose: 100 μmol Gd/kg body weight).

[3] abbreviates: incubation concentration 1 μM molecule, pellet was not washed.
Where [4] appears, read: incubation concentration 1 μM molecule, pellet washed.

T1 sequence (P08514 32-887 limits assumed): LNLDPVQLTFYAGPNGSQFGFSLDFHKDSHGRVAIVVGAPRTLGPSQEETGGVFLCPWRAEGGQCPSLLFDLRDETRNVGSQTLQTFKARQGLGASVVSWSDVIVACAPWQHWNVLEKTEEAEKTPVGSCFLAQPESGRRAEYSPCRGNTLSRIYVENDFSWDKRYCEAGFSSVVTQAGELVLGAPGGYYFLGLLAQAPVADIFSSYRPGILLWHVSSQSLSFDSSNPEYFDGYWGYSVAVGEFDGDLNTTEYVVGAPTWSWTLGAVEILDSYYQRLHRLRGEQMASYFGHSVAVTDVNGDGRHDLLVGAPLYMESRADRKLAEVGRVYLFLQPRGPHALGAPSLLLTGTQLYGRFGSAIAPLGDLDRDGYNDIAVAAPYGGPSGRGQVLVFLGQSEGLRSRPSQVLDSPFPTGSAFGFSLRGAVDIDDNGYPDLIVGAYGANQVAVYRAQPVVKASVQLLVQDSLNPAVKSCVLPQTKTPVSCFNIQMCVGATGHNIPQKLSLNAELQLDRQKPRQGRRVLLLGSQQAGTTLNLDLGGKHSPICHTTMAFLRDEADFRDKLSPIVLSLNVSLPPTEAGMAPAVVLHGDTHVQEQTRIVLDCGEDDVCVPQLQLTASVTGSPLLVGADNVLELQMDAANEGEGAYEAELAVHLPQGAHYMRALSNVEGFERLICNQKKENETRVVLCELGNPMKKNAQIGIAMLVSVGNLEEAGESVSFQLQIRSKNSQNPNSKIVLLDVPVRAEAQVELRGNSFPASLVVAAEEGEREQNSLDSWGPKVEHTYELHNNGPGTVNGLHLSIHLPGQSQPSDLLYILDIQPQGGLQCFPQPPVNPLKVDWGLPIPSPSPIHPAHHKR
T1 sequence (P08514 891-1039 partner limits assumed): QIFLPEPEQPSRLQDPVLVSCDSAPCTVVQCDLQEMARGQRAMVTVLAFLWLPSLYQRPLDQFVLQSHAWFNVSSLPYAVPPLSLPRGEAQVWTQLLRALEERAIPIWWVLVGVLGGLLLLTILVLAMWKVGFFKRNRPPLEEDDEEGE
T1 sequence (P05106 27-788): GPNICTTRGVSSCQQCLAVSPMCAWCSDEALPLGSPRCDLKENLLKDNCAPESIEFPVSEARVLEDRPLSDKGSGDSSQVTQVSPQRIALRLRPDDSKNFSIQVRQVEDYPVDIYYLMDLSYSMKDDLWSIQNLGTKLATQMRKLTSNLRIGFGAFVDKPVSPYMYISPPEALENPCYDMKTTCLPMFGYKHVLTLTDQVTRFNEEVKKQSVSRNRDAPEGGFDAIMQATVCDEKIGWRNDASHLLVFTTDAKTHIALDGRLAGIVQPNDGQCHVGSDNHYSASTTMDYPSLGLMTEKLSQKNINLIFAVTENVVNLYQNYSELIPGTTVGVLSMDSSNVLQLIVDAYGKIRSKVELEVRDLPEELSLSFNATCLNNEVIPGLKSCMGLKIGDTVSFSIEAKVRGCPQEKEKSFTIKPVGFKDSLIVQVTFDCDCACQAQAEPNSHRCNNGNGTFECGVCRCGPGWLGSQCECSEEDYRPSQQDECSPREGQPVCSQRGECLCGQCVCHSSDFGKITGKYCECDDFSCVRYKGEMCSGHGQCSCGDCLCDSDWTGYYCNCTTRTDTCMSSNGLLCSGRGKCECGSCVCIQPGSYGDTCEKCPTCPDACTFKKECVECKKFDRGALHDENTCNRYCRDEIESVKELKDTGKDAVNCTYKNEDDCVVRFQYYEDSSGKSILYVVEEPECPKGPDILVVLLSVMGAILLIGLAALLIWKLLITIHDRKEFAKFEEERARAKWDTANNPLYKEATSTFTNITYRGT

In turn, `C[C@@H](C(=O)NCC(=O)OCCC#Cc1cncc([C@H](CC(=O)O)NC(=O)[C@@H]2CCCN(C(=O)CCC3CCNCC3)C2)c1)N1CCN(CC(=O)O)CCN(CC(=O)O)CCN(CC(=O)O)CC1` [Example 1, Gadolinium 2,2′,2″-(10-{(2S)-1-[(2-{[4-(5-{(1S)-2-carboxy-1-[({(3R)-1-[3-(piperidin-4-yl)-propanoyl]piperidin-3-yl}carbonyl)amino]ethyl}pyridin-3-yl)but-3-yn-1-yl]oxy}-2-oxo-ethyl)amino]-1-oxopropan-2-yl}-1,4,7,10-tetraazacyclododecane-1,4,7-triyl)triacetate] came in with an IC50 in assay [1] of 29 nM.

As for `C[C@@H](C(=O)NCC(=O)NCCC#Cc1cncc([C@H](CC(=O)O)NC(=O)[C@@H]2CCCN(C(=O)CCC3CCNCC3)C2)c1)N1CCN(CC(=O)O)CCN(CC(=O)O)CCN(CC(=O)O)CC1` [Example 2, Gadolinium 2,2′,2″-(10-{(2S)-1-[(2-{[4-(5-{(1S)-2-carboxy-1-[({(3R)-1-[3-(piperidin-4-yl)-propanoyl]piperidin-3-yl}carbonyl)amino]ethyl}pyridin-3-yl)but-3-yn-1-yl]amino}-2-oxo-ethyl)amino]-1-oxopropan-2-yl}-1,4,7,10-tetraazacyclododecane-1,4,7-triyl)triacetate], the IC50 in assay [1] stood at 24 nM. The “Concentration within platelet pellet” value in assay [2] (setting [3]) worked out at 8.1 ± 0.6 μM Gd.

In assay [1], `C[C@@H](C(=O)NCC(=O)NCCCCCCc1ccc(C#Cc2cncc([C@H](CC(=O)O)NC(=O)[C@@H]3CCCN(C(=O)CCC4CCNCC4)C3)c2)cc1)N1CCN(CC(=O)O)CCN(CC(=O)O)CCN(CC(=O)O)CC1` [Example 3, Gadolinium 2,2′,2″-{10-[(2S)-1-({2-[(6-{4-[(5-{(1S)-2-carboxy-1-[({(3R)-1-[3-(piperidin-4-yl)propanoyl]piperidin-3-yl}carbonyl)amino]ethyl}pyridin-3-yl)ethynyl]phenyl}hexyl)-amino]-2-oxoethyl}amino)-1-oxopropan-2-yl]-1,4,7,10-tetraazacyclododecane-1,4,7-triyl}triacetate] registered an IC50 of 13 nM. In assay [2] (setting [3]), the “Concentration within platelet pellet” value came to 8.3 ± 2.1 μM Gd.

In turn, `C[C@@H](C(=O)NCC(=O)NCCCCCCc1ccc(CCc2cncc([C@H](CC(=O)O)NC(=O)[C@@H]3CCCN(C(=O)CCC4CCNCC4)C3)c2)cc1)N1CCN(CC(=O)O)CCN(CC(=O)O)CCN(CC(=O)O)CC1` [Example 4, Gadolinium 2,2′,2″-{10-[(2S)-1-({2-[(6-{4-[(5-{(1S)-2-carboxy-1-[({(3R)-1-[3-(piperidin-4-yl)propanoyl]piperidin-3-yl}carbonyl)amino]ethyl}pyridin-3-yl)ethyl]phenyl}hexyl)-amino]-2-oxoethyl}amino)-1-oxopropan-2-yl]-1,4,7,10-tetraazacyclododecane-1,4,7-triyl}triacetate] showed an IC50 in assay [1] of 25 nM. Besides, the “Concentration within platelet pellet” value in assay [2] (setting [4]) is recorded as 3.8 ± 0.2 μM Gd.

`CC(C(=O)NCC(=O)NCC(NC(=O)CNC(=O)C(C)N1CCN(CC(=O)O)CCN(CC(=O)O)CCN(CC(=O)O)CC1)C(=O)NCC(NC(=O)C(CNC(=O)CNC(=O)C(C)N1CCN(CC(=O)O)CCN(CC(=O)O)CCN(CC(=O)O)CC1)NC(=O)CNC(=O)C(C)N1CCN(CC(=O)O)CCN(CC(=O)O)CCN(CC(=O)O)CC1)C(=O)NCCCCc1cccc(CCc2cncc([C@H](CC(=O)O)NC(=O)[C@@H]3CCCN(C(=O)CCC4CCNCC4)C3)c2)c1)N1CCN(CC(=O)O)CCN(CC(=O)O)CCN(CC(=O)O)CC1` (stereo partly drawn) [Example 9, Tetragadolinium 2,3-bis({2,3-bis[(N-{2-[4,7,10-tris(carboxylatomethyl)-1,4,7,10-tetraazacyclododecan-1-yl]propanoyl}glycyl)amino]propanoyl}amino)-N-(4-{3-[(5-{(1S)-2-carboxy-1-[({(3R)-1-[3-(piperidin-4-yl)propanoyl]piperidin-3-yl}carbonyl)amino]ethyl}pyridin-3-yl)ethyl]phenyl}butyl)propanamide]: in assay [1], the IC50 turned out to be 32 nM. Also, the “Concentration within platelet pellet” value in assay [2] (incubation concentration 0.8 μM molecule, pellet washed) stood at 21.1 ± 9.6 μM Gd.

Take `CC(C(=O)NCC(=O)NC[C@H](NC(=O)CNC(=O)C(C)N1CCN(CC(=O)O)CCN(CC(=O)O)CCN(CC(=O)O)CC1)C(=O)NCCCc1ccc(C#Cc2cncc([C@H](CC(=O)O)NC(=O)[C@@H]3CCCN(C(=O)CCC4CCNCC4)C3)c2)cc1)N1CCN(CC(=O)O)CCN(CC(=O)O)CCN(CC(=O)O)CC1` (stereo partly drawn) [Example 10, Digadolinium N-{2-[4,7,10-tris(carboxylatomethyl)-1,4,7,10-tetraazacyclododecan-1-yl]-propanoyl}glycyl-N-(3-{4-[(5-{(1S)-2-carboxy-1-[({(3R)-1-[3-(piperidin-4-yl)propanoyl]-piperidin-3-yl}carbonyl)amino]ethyl}pyridin-3-yl)ethynyl]phenyl}propyl)-3-[(N-{2-[4,7,10-tris(carboxylatomethyl)-1,4,7,10-tetraazacyclododecan-1-yl]propanoyl}glycyl)-amino]alaninamide]: the IC50 in assay [1] worked out at 16 nM. The “Concentration within platelet pellet” value in assay [2] (setting [4]) is recorded as 13.9 ± 0.3 μM Gd.

With `CC(C(=O)NCC(=O)NCC(NC(=O)CNC(=O)C(C)N1CCN(CC(=O)O)CCN(CC(=O)O)CCN(CC(=O)O)CC1)C(=O)NCC(NC(=O)C(CNC(=O)CNC(=O)C(C)N1CCN(CC(=O)O)CCN(CC(=O)O)CCN(CC(=O)O)CC1)NC(=O)CNC(=O)C(C)N1CCN(CC(=O)O)CCN(CC(=O)O)CCN(CC(=O)O)CC1)C(=O)NCCCc1ccc(C#Cc2cncc([C@H](CC(=O)O)NC(=O)[C@@H]3CCCN(C(=O)CCC4CCNCC4)C3)c2)cc1)N1CCN(CC(=O)O)CCN(CC(=O)O)CCN(CC(=O)O)CC1` (stereo partly drawn) [Example 11, Tetragadolinium 2,3-bis({2,3-bis[(N-{2-[4,7,10-tris(carboxylatomethyl)-1,4,7,10-tetraaza-cyclododecan-1-yl]propanoyl}glycyl)amino]propanoyl}amino)-N-(3-{4-[(5-{(1S)-2-carboxy-1-[({(3R)-1-[3-(piperidin-4-yl)propanoyl]piperidin-3-yl}carbonyl)amino]ethyl}-pyridin-3-yl)ethynyl]phenyl}propyl)propanamide], the IC50 in assay [1] was 26 nM. Moreover, the “Concentration within platelet pellet” value in assay [2] (setting [4]) came to 19.9 ± 0.9 μM Gd.
